Patent US20130283404A1, “EPIGENETICS IN AUTOIMMUNITY” (The Regents of the University of Michigan, priority 2012, published 2013)

Key:
Type in all cases: in vivo, mouse
Dnmt1 = Dnmt1 mRNA by real time RT-PCR in spleens of double transgenic mice given dox; details: dox plus sucrose 2 weeks, spleen RNA
Experimental: (§1) Double transgenic mice were generated and maintained in a specific pathogen-free environment. All protocols were approved by the University of Michigan Committee on the Use and Care of Animals (UCUCA). Pups were weaned at 20 days of age and genotyped for the presence of both genes by PCR. Transgene expression was induced by giving 2 mg/ml of dox in the drinking water and supplemented with 5% of sucrose. Double transgenic control animals were given 5% sucrose alone. All the double transgenic mice were developmentally normal. Protein and blood in mouse urine was measured using Chemstrip 6 dipsticks (Roche, Madison, Wis.).
(§2) 150 ng of RNA was converted to cDNA and amplified in one step using a Quanti-Tect SYBR Green RT-PCR kit (Qiagen). CD70 transcripts were quantitated by real-time RT-PCR using a Rotor-Gene 3000 (Corbett Research, Sydney, Australia) and previously published protocols (Gorelik, 2007; herein incorporated by reference in its entirety). The amplification conditions were: 30 min at 50° C., 15 min at 95° C., 40 cycles of 15s at 94° C., 20s at 56° C. and 30s at 72° C. followed by a final extension at 72° for 5 min. Transcript expression levels were normalized to GAPDH. […]
Double transgenic mice were given dox plus sucrose or sucrose alone for 2 weeks. The mice were then sacrificed, RNA isolated from their spleens, then Dnmt1 mRNA levels were measured by real time RT-PCR. […]

dnPKCδ/CD2rtTA mice [1] = experiment: Kidney histopathology in double transgenic dnPKCδ/CD2rtTA mice given Doxy; details: double transgenic dnPKCδ/CD2rtTA mice pretreated with Doxy
Experimental: Double transgenic dnPKCδ/CD2rtTA mice were given 4 mg/ml dox/5% sucrose in their drinking water for 20 wks. Double transgenic animals treated with 5% sucrose were used as controls. At indicated times, their kidneys and lungs were removed. Kidneys were divided in two, one half embedded in O.C.T. (Thermo Fisher) and frozen in liquid nitrogen while the other half and the lung were fixed in 10% formalin, paraffin embedded and stained with hematoxylin and eosin. Five micron sections were cut from the frozen tissue and fixed for 10 minutes in ice cold acetone. 10% horse serum/PBS was used to block non-specific sites and the sections were stained with a 1:50 dilution of biotin-Goat anti-mouse IgG (Fc specific) antibody (US Biologicals)/FITC-Streptavidin (BD Pharmingen) to detect IgG depositions.
Immunohistochemical staining noted IgG deposition along capillary walls and in the mesangial region of glomeruli from transgenic animals pretreated with Doxy (FIG. 11). It was also observed perivascular infiltration of leukocytes in glomeruli (FIG. 12), lungs (FIG. 13) and liver of transgenic animals pretreated with Doxy.

CD70 = CD70 mRNA in CD3+ T cells of dnPKCδ/CD2-rtTA mice with and without dox; details: dox 2 weeks, relative to controls
Experimental: as §1, §2

dnPKCδ/CD2rtTA mice [2] = experiment: Serum IgG anti-dsDNA antibodies by ELISA in double transgenic mice given dox; details: dox in drinking water, serially over time, versus sucrose controls
Experimental: Serum anti-dsDNA IgG antibodies were measured by ELISA. Microtiter plates (Costar, Corning, N.Y.) were coated overnight at 4° C. with 10 μg plasmid dsDNA, then 5 μL of mouse sera were added to each well in 100 μl of buffer and incubated overnight at 4° C. Bound anti-dsDNA antibody was detected by chemiluminescence using HRP-goat anti-mouse IgG (Bethyl Lab Inc) at 450 nm in a spectrophotometer equipped with Softmax Pro software (Molecular Devices, Sunnyvale, Calif.). Murine monoclonal anti-dsDNA antibody (Chemicon) was used for the standard curve.
Experiments were conducted during the development of embodiments of the present invention to determine if the double transgenic develop anti-dsDNA antibodies when given dox. The double transgenic mice were given sucrose or sucrose plus dox in their drinking water, and IgG anti-dsDNA antibodies were measured serially over time by ELISA.

ERK = ERK phosphorylation in CD3+ splenic T cells of dnPKCδ/CD2-rtTA mice receiving dox; details: dox in drinking water two weeks, relative to sucrose controls
Experimental: as §1
20 μg of protein was diluted in Laemmli loading buffer and denatured by boiling for 5 min followed by electrophoresis in 10-12% SDS-polyacrylamide gels. The fractionated proteins were then electrophoretically transferred to nitrocellulose membranes (Schleicher and Schuell, Keene, N.H.) and stained with Ponceau S (Sigma) to verify equal loading. Membranes were blocked for 1 h in Tris-buffered saline (TBS) containing 0.1% Tween (Sigma) and 5% nonfat dry milk (Bio-Rad). […] For quantitative studies, the bands on X-ray films were scanned and analyzed with ImageQuant 5.2 software (Amersham). […]

With `C[C@H]1c2cccc(O)c2C(O)=C2C(=O)[C@]3(O)C(O)=C(C(N)=O)C(=O)[C@@H](N(C)C)[C@@H]3[C@@H](O)[C@@H]21` [dox, doxycycline] the “decrease in Dnmt1 transcripts” value (Dnmt1) was “approximately 45%”, the kidney histology (dnPKCδ/CD2rtTA mice [1]) was “evidence of glomerulonephritis” and the “CD70 mRNA expression” value (CD70) was “significantly increased”. For the same compound, the “IgG anti-dsDNA antibodies” value (dnPKCδ/CD2rtTA mice [2]) was “significantly higher levels” and the “ERK phosphorylation following PMA stimulation” value (ERK) was “Reduced”.
